Test results reported in patent US9828375B2, “4-position substituted pyrazolopyrimidine derivative, and use thereof in drug preparation” (Guangxi Wuzhou Pharmaceuticals (Group) Co., Ltd., priority 2012, dated 2017).

Key:
[1] = target: VEGFR2 (Homo sapiens, UniProt P35968); assay: Kinase inhibition activity test, isotope labeling (γ-33P-ATP): VEGFR2; type: biochemical; conditions: for Activity inhibition rate VEGFR2 (h) / inhibition at 10 µM: test compound at a concentration of 10 μM; for IC50: ATP 90 μM, read-out: VEGFR2 IC50 value (inhibitory activity value); for inhibition at 10 µM: read-out: Activity inhibition rate VEGFR2 (h)
Experimental: (§1) The purpose of this experiment was to test the inhibitory activity of the compound of the invention for in vitro kinase with the isotope labeling method (the γ phosphate group on ATP was labeled). In this experiment, the in vitro activity inhibition of such kinases as FLT3, VEGFR2, FLT1, FLT4, RET, c-RAF, B-RAF, c-KIT, PDGFα, PDGFβ, FGFR2, FGFR1, EphA2, EphB2, SRC, ABL, ALK and Met was tested respectively. Staurosporine was reference molecule (or referred to as positive control). The kinase inhibition activity of the test compound was expressed by half-inhibitory concentration (IC50) or the kinase activity inhibition rate of the test compound at a concentration of 10 μM. The IC50 value could be obtained by calculating the kinase activity inhibition rate of the test compound at different concentrations.
(§2) 20 mM 3-(N-morpholinyl)propanesulfonic acid (MOPS); 1 mM ethylenediaminetetraacetic acid (EDTA), 0.01% Brij 35 (Brij-35), 5% glycerol, 0.1% mercaptoethanol, 1 mg/mL bovine serum albumin (BSA), 10 mM manganous dichloride solution (MnCl2), 0.1 mg/mL glutamic acid/tyrosine (4:1) polypeptide (poly(Glu, Tyr)4:1), 50 μM EAIYAAPFAKKK (substrate of FLT3), 0.33 mg/mL myelin basic protein (substrate of VEGFR2), 250 μM KKKSPGEYVNIEFG (substrate of FLT1(h)), 500 μM GGEEEEYFELVKKKK (substrate of FLT4(h)), 250 μM KKKSPGEYVNIEFG (substrate of RET), 0.66 mg/mL myelin basic protein (substrate of C-RAF), 250 μM GGMEDIYFEFMGGKKK (substrate of c-Kit), 250 μM GGMEDIYFEFMGGKKK (substrate of PDGFα), 250 μM KKKSPGEYVNIEFG (substrate of FGFR1), […] GGEEEEYFELVKKKK (substrate of SRC), 50 μM EAIYAAPFAKKK (substrate of ABL), 250 μM KKKSPGEYVNIEFG (substrate of ALK), 250 μM KKKSPGEYVNIEFG (substrate of Met(h)), 10 mM magnesium acetate and γ-^33 P-ATP solution, stop buffer (3% phosphate buffer), washing buffer (75 mM phosphate solution), methanol, Filtermat A membrane, FLT3, VEGFR2, FLT3, VEGFR2, FLT1, FLT4, RET, c-RAF, B-RAF, c-KIT, PDGFRα, PDGFRβ, FGFR2, FGFR1, EphA2, EphB2, SRC, ABL, ALK, Met and other kinases, and the test compounds.
(§3) Buffers (8 mM MOPS with pH value of 7.0, 0.2 mM EDTA and 10 mM MnCl2), (5-10 mU) kinases to be tested (FLT3, VEGFR2, FLT1, FLT4, RET, c-RAF, B-RAF, c-KIT, PDGFRα, PDGFRβ, FGFR2, FGFR1, EphA2, EphB2, SRC, ABL, ALK and Met), substrates of kinases to be tested (refer to experimental materials), 10 mM magnesium acetate and γ-^33 P-ATP solution, and test compounds at different concentrations were added to a reaction tube orderly. […] Reaction was terminated with 5 μL 3% phosphate buffer finally, and 10 μL reaction solution was titrated to the Filtermat A membrane; solution was washed for 3 times with 75 mM phosphate solution with each time lasting 5 minutes, and then washed once with methanol. Finally, the Filtermat A membrane was dried, and scintillation counting was performed on the membrane, with scintillation count reflecting the phosphorylation degree of the substrates, so that the activity inhibition of kinase could be characterized.

[2] = target: PDGFRα (Homo sapiens, UniProt P16234); assay: Kinase inhibition activity test, isotope labeling: PDGFRα; type: biochemical; conditions: for Activity inhibition rate PDGFRα (h) / inhibition at 10 µM: test compound at a concentration of 10 μM; for IC50: ATP 120 μM, read-out: PDGFRα IC50 value (inhibitory activity value); for inhibition at 10 µM: read-out: Activity inhibition rate PDGFRα (h)
Experimental: as §1, §2, §3

[3] = target: FGFR2 (Homo sapiens, UniProt P21802); assay: Kinase inhibition activity test, isotope labeling: FGFR2; type: biochemical; conditions: for Activity inhibition rate FGFR2 (h) / inhibition at 10 µM: test compound at a concentration of 10 μM; for IC50: ATP 90 μM, read-out: FGFR2 IC50 value (inhibitory activity value); for inhibition at 10 µM: read-out: Activity inhibition rate FGFR2 (h)
Experimental: as §1, §2, §3

[4] = tested on: human leukemia cell line MV4-11; assay: In vitro tumor cell proliferation inhibition (MTT): MV4-11; type: cell-based
Source text: (§4) The purpose of the experiment was to test the inhibition activity of the compounds of the invention for in vitro human tumor cell proliferation by the methyl thiazolyl tetrazolium (MTT) colorimetry.
(§5) Main reagents: RPMI-1640, fetal bovine serum, pancreatin, etc. were purchased from Gibco BRL Company (Invitrogen Corporation, USA) and IMDM medium that was purchased from American Type Culture Collection (ATCC). Methyl thiazolyl tetrazolium (MTT) and dimethyl sulfoxide (DMSO) were products from Sigma Company (USA). Pyrazolopyrimidine derivatives were composed by the inventor. During in vitro experiment, 100% DMSO was prepared into 10 mM storage solution, the solution was stored in a refrigerator at −20° C. for future use, and was diluted to the required concentration with complete culture solution before use.
(§6) Cell line and culture: Human leukemia cell line MV4-11, Jurkat, K562, human thyrophyma cell line TT, human gastric carcinoma cell line MKN-45, human malignant melanoma cell lines A375 and A875, human pancreatic carcinoma cell line panc-1, human cervical carcinoma cell line HELA, human colorectal carcinoma cell line HCT116, etc. were purchased from American type culture collection and were preserved by this laboratory. All leukemia cell lines (except MV4-11), gastric carcinoma cell lines and thyrophyma cell lines were cultured in RPMI-1640 complete medium containing 10% fetal bovine serum, 100 U/mL penicillin and 100 μg/mL streptomycin at 37° C. in 5% CO2. The remaining cell lines were cultured in DMEM complete medium containing 10% fetal bovine serum (containing 20% MV4-11 cell), 100 U/mL penicillin and 100 µg/mL streptomycin at 37° C. in 5% CO2.
(§7) Cell suspension with cell concentration of 1-2×10^4/mL was adjusted with the complete cell medium and inoculated in a 96-well plate, with each well filled with 200 μl cell suspension that was cultured overnight. On the next day, supernatant was sucked and abandoned (supernatant was sucked upon centrifugation of suspension cells), and then cells were processed with test compounds at gradient concentrations respectively. Meanwhile, a negative control group free from drug and a solvent control group with equal volume were set, and the DMSO concentration was 0.1%. Each dose group was provided with three wells and cultured at 37° C. in 5% CO2. After 72 hours, 20 μl 5 mg/mL MTT reagent was added to each well, and cultured for another 2 to 4 hours, the supernatant was abandoned; 150 μL DMSO was added to each well again, vibrated and mixed evenly for 15 minutes; the absorbance (A) values (proportional to living cell amount) were determined with a microplate reader (λ=570 nm) and averaged. […] Experiment was repeated for 3 times at least. Experimental data were expressed with means, data statistics were tested by t, and P<0.05 means that difference has a statistical significance. The cell proliferation inhibition effects of all compounds as follows are expressed by IC50 or inhibition rate.

[5] = tested on: human leukemia cell line K562; assay: In vitro tumor cell proliferation inhibition (MTT): K562; type: cell-based
Source text: as §4, §5, §6, §7

Chain of FGFR2 (P21802 22-821): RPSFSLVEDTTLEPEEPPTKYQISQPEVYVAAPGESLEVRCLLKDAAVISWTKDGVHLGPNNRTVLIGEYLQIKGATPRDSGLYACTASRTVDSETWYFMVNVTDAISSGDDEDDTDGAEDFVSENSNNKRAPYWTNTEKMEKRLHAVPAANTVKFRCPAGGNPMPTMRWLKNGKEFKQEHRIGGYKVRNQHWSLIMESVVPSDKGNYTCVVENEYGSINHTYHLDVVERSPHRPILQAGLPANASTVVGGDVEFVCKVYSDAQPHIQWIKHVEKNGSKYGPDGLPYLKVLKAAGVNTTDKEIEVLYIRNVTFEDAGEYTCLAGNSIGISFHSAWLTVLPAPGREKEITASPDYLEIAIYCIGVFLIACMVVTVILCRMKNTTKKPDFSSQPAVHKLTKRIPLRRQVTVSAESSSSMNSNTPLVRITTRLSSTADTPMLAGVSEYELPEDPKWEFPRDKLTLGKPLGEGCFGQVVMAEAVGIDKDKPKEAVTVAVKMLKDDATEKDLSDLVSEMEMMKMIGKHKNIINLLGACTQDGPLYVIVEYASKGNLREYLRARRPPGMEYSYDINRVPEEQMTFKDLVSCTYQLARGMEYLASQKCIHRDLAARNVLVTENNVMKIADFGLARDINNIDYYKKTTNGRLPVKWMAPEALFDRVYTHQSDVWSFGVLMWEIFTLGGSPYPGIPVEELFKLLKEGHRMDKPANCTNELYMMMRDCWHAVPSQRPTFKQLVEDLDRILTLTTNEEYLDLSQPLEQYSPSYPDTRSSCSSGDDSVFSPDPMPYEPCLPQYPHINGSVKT
Chain of PDGFRα (P16234 24-1089): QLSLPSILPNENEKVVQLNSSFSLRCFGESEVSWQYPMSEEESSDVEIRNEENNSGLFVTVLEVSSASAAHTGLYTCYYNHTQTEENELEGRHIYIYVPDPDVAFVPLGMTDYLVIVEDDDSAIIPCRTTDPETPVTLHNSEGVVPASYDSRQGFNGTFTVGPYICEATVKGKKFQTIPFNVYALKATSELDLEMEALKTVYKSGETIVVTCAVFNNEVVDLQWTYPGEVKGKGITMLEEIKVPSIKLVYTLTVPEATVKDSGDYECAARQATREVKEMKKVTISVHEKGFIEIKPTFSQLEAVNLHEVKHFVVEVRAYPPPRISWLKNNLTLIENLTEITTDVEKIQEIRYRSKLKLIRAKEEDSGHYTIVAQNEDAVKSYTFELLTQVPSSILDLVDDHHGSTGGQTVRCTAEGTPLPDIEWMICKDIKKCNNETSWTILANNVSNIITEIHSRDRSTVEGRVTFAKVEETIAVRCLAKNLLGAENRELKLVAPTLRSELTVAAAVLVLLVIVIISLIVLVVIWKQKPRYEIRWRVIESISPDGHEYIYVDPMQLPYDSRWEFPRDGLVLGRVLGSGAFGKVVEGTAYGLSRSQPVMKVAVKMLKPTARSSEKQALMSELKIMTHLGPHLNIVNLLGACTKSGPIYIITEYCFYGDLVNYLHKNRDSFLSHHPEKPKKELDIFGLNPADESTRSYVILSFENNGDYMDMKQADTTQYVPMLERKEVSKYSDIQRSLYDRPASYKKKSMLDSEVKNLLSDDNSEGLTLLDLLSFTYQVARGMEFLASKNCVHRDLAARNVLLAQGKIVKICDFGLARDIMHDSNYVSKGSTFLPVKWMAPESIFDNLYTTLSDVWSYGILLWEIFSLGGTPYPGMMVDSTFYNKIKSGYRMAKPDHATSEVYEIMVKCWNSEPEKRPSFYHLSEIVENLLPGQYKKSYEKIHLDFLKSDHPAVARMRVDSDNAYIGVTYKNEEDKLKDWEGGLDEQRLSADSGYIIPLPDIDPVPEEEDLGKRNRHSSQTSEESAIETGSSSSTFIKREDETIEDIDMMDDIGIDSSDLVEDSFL
Chain of VEGFR2 (P35968 20-1356): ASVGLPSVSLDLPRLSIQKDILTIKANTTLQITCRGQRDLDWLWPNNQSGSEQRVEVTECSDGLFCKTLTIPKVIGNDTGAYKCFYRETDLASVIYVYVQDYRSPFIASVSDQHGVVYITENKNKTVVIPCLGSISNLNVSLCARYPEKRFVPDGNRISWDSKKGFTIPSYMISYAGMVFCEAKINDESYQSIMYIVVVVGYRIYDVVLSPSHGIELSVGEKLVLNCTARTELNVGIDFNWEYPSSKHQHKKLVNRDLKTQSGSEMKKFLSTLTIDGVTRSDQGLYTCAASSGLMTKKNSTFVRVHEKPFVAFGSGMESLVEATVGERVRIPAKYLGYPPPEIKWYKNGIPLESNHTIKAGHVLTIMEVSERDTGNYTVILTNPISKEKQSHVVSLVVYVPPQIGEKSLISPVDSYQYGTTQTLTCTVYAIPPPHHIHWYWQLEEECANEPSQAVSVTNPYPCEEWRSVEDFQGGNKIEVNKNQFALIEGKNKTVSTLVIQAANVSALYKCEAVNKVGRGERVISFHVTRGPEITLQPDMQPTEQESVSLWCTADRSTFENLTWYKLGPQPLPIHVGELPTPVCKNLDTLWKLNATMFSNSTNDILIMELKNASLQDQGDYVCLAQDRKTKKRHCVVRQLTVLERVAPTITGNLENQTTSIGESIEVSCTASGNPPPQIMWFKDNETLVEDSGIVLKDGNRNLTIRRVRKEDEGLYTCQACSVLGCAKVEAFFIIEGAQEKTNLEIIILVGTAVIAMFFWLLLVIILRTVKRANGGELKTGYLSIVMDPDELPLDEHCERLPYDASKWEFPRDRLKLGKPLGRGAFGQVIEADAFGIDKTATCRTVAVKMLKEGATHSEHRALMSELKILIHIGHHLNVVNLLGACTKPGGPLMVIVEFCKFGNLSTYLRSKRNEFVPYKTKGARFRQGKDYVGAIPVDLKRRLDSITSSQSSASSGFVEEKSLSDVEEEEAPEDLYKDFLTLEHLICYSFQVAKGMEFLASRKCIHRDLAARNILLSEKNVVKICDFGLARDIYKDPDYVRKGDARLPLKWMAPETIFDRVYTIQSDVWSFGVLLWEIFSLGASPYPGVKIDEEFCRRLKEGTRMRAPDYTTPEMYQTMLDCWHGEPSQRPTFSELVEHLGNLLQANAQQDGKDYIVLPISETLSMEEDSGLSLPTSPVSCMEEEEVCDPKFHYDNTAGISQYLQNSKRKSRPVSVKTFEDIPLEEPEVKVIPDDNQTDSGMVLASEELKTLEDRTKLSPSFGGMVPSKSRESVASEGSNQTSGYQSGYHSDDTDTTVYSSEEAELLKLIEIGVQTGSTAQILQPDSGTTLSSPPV

Activity inhibition rate VEGFR2 (h) [1] | Activity inhibition rate PDGFRα (h) [2] | Activity inhibition rate FGFR2 (h) [3] | IC50 ([4]; 72 hours) | IC50 ([5]; 72 hours) | IC50 [1] | inhibition at 10 µM [1] | IC50 [2] | inhibition at 10 µM [2] | IC50 [3] | inhibition at 10 µM [3] | IC50 ([4]; Homo sapiens, MV4-11, 72 h) | IC50 ([5]; Homo sapiens, K562, 72 hours) | Compound
64% | 93% | 19% | 363 nM | < 50 µM |  |  |  |  |  |  |  |  | 1-(4-((1H-pyrazolopyrimidine-4-yl)oxy)phenyl)-3-(methylcyclohexyl)urea [4a-20]
100% | 63% | 13% | 18 nM | < 50 µM | 37 nM |  |  |  |  |  |  |  | O=C(Nc1ccc(Oc2ncnc3[nH]ncc23)cc1)Nc1ccc(C(F)(F)F)cc1Cl [4a-13]
100% | 52% | 71% | 17 nM | 9.12 µM | 24 nM |  |  |  |  |  |  |  | O=C(Nc1ccc(Oc2ncnc3[nH]ncc23)cc1)Nc1cc(C(F)(F)F)cc(C(F)(F)F)c1 [4a-12, 1-(4-((1H-pyrazolopyrimidine-4-yl)oxy)phenyl)-3-(3,5-bis(trifluoromethyl)phenyl)urea]
100% | >50% | >50% | 0.4 nM | 3 to 10 µM | 11 nM |  | < 10000 nM |  | < 10 µM |  |  |  | CC(C)(C)c1cc(NC(=O)Nc2ccc(Oc3ncnc4[nH]ncc34)c(F)c2)no1 [4a-31]
100% | 89% | 51% | 11 nM | < 50 µM | 32 nM |  |  |  |  |  |  |  | CC(C)c1cccc(NC(=O)Nc2ccc(Oc3ncnc4[nH]ncc34)c(F)c2)c1 [4a-7, 1-(4-((1H-pyrazolopyrimidine-4-yl)oxy)-3-fluorophenyl)-3-(3-isopropylphenyl)urea]
 |  |  |  |  |  | 93% |  | > 30% |  | 22% | < 50000 nM | 3.45 µM | O=C(Nc1cccc(Nc2ncnc3[nH]ncc23)c1)Nc1ccc(F)c(Cl)c1 [4b-1]
100% | >50% | >50% | < 1000 nM | < 50 µM |  |  |  |  |  |  |  |  | CC(C)(C)c1cc(NC(=O)Nc2ccc(Sc3ncnc4[nH]ncc34)cc2)no1 [4c-3, 1-(4-(1H-pyrazolopyrimidine-4-sulfydryl)phenyl)-3-(5-tert-butylisoxazol-3-yl)urea]

The remaining lines, values behind:

Compound | Activity inhibition rate VEGFR2 (h) [1] | Activity inhibition rate PDGFRα (h) [2] | Activity inhibition rate FGFR2 (h) [3] | IC50 ([4]; 72 hours) | IC50 ([5]; 72 hours) | IC50 [1] | inhibition at 10 µM [1] | IC50 [2] | inhibition at 10 µM [2] | IC50 [3] | inhibition at 10 µM [3] | IC50 ([4]; Homo sapiens, MV4-11, 72 h) | IC50 ([5]; Homo sapiens, K562, 72 hours)
O=C(Nc1ccc(Oc2ncnc3[nH]ncc23)cc1)Nc1cccc(C(F)(F)F)c1 [4a-6] |  |  |  |  |  | 11 nM | 100% | 322 nM | 97% | < 10 µM | 56% | 4 nM | < 50 µM
Cc1cc(C)c(NC(=O)Nc2ccc(NC(=O)N3C=NC=C4NNC=C43)cc2)c(C)c1 [4b-7, 1-(4-(1H-pyrazolopyrimidine-4-amido)phenyl)-3-(2,4,6-trimethylphenyl)urea] |  |  |  |  |  |  | 92% |  | > 30% |  | 69% | 667 nM | < 50 µM
O=C(Nc1ccc(Oc2ncnc3[nH]ncc23)cc1)Nc1ccc(Cl)c(C(F)(F)F)c1 [4a-2] | 100% | 93% | 80% | 3 nM | < 50 µM | 12 nM |  | 223 nM |  | 1.8 µM |  |  | 
1-(4-((1H-pyrazolopyrimidine-4-yl)oxy)-3-fluorophenyl)-3-(3-trifluoromethoxy)phenyl)urea [4a-8] | 100% | 64% | 6% | 53 nM | < 50 µM | 29 nM |  |  |  |  |  |  | 
O=C(Nc1ccc(Oc2ncnc3[nH]ncc23)c(F)c1)Nc1ccc(Cl)c(C(F)(F)F)c1 [4a-10, 1-(4-((1H-pyrazolopyrimidine-4-yl)oxy)-3-fluorophenyl)-3-(4-chloro-3-(trifluoromethyl)phenyl)urea] | 100% | 52% | 53% | 9 nM | < 50 µM | 21 nM |  |  |  |  |  |  | 
C[C@@H](NC(=O)Nc1ccc(Oc2ncnc3[nH]ncc23)cc1)c1ccccc1 [4a-19, (R)-1-(4-((1H-pyrazolopyrimidine-4-yl)oxy)phenyl)-3-(1-phenethyl)urea] | 92% | 84% | 17% | 124 nM | < 50 µM |  |  |  |  |  |  |  | 
